{"source": "patent US7928063B2", "about": "“Analogs of human growth hormone-releasing hormone, their preparation and use” (Instytut Farmaceutyczny, priority 2001, dated 2011)", "key": {"[1]": {"test_system": "GH release", "assay": "Effect of subcutaneous administration on GH release (plasma GH by RIA) in male rats", "format": "in vivo, rat", "conditions": "for Relative potency compared with hGH-RH-(1-29)—NH2: at 15 minutes after the injection; for Plasma GH at various times after injection, 15 min. / Plasma GH at various times after injection, 30 min. / Plasma GH at various times after injection, 0 min.: male rats, mean ± SEM; for Plasma GH at various times after injection, 0 min.: sample 1 minute before injection; for Net GH concentration Δ(15 − 30): GH at 15 min. minus GH at 30 min.; for Net GH concentration Δ(15 − 0): GH at 15 min. minus GH before injection"}, "[2]": {"test_system": "trypsin", "assay": "Trypsin digestion test (enzymatic resistance, HPLC)", "format": "in vitro ADME", "description": "The compounds prepared were also tested for enzymatic resistance in the trypsin digestion test. […] Subsequently, a trypsin solution was added (100 μl; 0.02 mg/ml; Serva, 36 U/mg). […] An aliquot (500 μl) was withdrawn and diluted with 0.5 M acetic acid (1 ml), then lyophilized. The material obtained was analyzed by HPLC, using a Knauer system with an Eurospher 100 C18 (4.6×250 mm, 5 micron) column. The following solvent systems were used: A, 0.1% TFA in water; […]"}}, "note": "Square brackets hold non-standard residues; d marks the D form. Peptide text beside a SMILES is read from it. * marks the point of attachment. Desaminotyrosyl = O=C(CCc1ccc(O)cc1)*; hArg = N=C(N)NCCCC[C@H](N)C(=O)O; Nle = CCCC[C@H](N)C(=O)O"}
{"molecule": "CCCC[C@H](NC(=O)[C@@H](NC(=O)[C@H](CC(=O)O)NC(=O)[C@H](CCC(N)=O)NC(=O)[C@H](CC(C)C)NC(=O)[C@H](CC(C)C)NC(=O)[C@H](CCCCNC(=N)N)NC(=O)[C@H](CCCCNC(=N)N)NC(=O)[C@H](C)NC(=O)[C@H](CO)NC(=O)[C@H](CC(C)C)NC(=O)[C@H](CCC(N)=O)NC(=O)[C@H](C)NC(=O)[C@H](CC(C)C)NC(=O)[C@@H](NC(=O)[C@H](CCCCNC(=N)N)NC(=O)[C@H](CCCCNC(=N)N)NC(=O)[C@H](Cc1ccc(O)cc1)NC(=O)[C@H](CO)NC(=O)[C@H](CC(N)=O)NC(=O)[C@@H](NC(=O)[C@H](Cc1ccccc1)NC(=O)[C@@H](NC(=O)[C@H](C)NC(=O)[C@H](CC(=O)O)NC(=O)[C@H](C)NC(=O)CCc1ccc(O)cc1)[C@@H](C)CC)[C@@H](C)O)C(C)C)[C@@H](C)CC)C(=O)N[C@@H](CC(=O)O)C(=O)N[C@@H](CCCCNC(=N)N)C(N)=O", "note": "[Compound 1, Dat-Ala-Asp-Ala-Ile-Phe-Thr-Asn-Ser-Tyr^10-hArg-hArg-Val-Leu-Ala-Gln-Leu-Ser-Ala-hArg^20-hArg-Leu-Leu-Gln-Asp-Ile-Nle-Asp-hArg^29-NH2] (Desaminotyrosyl-ADAIFTNSY[hArg][hArg]VLAQLSA[hArg][hArg]LLQDI[Nle]D[hArg]-NH2)", "values": [{"measurement": "Relative potency compared with hGH-RH-(1-29)—NH2", "setting": "[1]; dose 1.0 μg/kg vs 50 μg/kg of hGH-RH-(1-29)—NH2", "result": 70, "unit": "times higher"}, {"measurement": "Relative potency compared with hGH-RH-(1-29)—NH2", "setting": "[1]; dose 3.0 μg/kg vs 150 μg/kg of hGH-RH-(1-29)—NH2", "result": 38, "unit": "times higher"}, {"measurement": "Plasma GH at various times after injection, 15 min.", "setting": "[1]; sc., dose 1 μg/kg", "result": "99.1 ± 16", "unit": "ng/mL"}, {"measurement": "Plasma GH at various times after injection, 30 min.", "setting": "[1]; sc., dose 1 μg/kg", "result": "42.5 ± 9.2", "unit": "ng/mL"}, {"measurement": "Plasma GH at various times after injection, 0 min.", "setting": "[1]; sc., dose 1 μg/kg", "result": "23.1 ± 2", "unit": "ng/mL"}, {"measurement": "Plasma GH at various times after injection, 15 min.", "setting": "[1]; sc., dose 3 μg/kg", "result": "130 ± 16", "unit": "ng/mL"}, {"measurement": "Plasma GH at various times after injection, 30 min.", "setting": "[1]; sc., dose 3 μg/kg", "result": "58.4 ± 8.9", "unit": "ng/mL"}, {"measurement": "Plasma GH at various times after injection, 0 min.", "setting": "[1]; sc., dose 3 μg/kg", "result": "28.3 ± 4.1", "unit": "ng/mL"}, {"measurement": "Effect on GH release in rats, compared with saline control (in words)", "setting": "[1]; rats, sc.", "result": "strongest stimulating effect"}, {"measurement": "Net GH concentration Δ(15 − 30)", "setting": "[1]; rats, sc., dose 1 μg/kg", "result": "56.5 ± 14.7", "unit": "ng/mL"}, {"measurement": "Net GH concentration Δ(15 − 0)", "setting": "[1]; rats, sc., dose 1 μg/kg", "result": "75.9 ± 16.0", "unit": "ng/mL"}, {"measurement": "Net GH concentration Δ(15 − 30)", "setting": "[1]; rats, sc., dose 3 μg/kg", "result": "72.0 ± 12.6", "unit": "ng/mL"}, {"measurement": "Net GH concentration Δ(15 − 0)", "setting": "[1]; rats, sc., dose 3 μg/kg", "result": "102 ± 12.6", "unit": "ng/mL"}, {"measurement": "Resistance to trypsin digestion (in words)", "setting": "[2]; after 30 minutes", "result": "unchanged"}, {"measurement": "remaining at 0.5 h, 0.4 mg/ml", "setting": "[2]; isolated enzyme trypsin, trypsin, pH 8.5, 37° C., digestion time 30 min., read-out: % Unchanged compound", "result": "> 99", "unit": "%"}, {"measurement": "remaining at 1 h, 0.4 mg/ml", "setting": "[2]; isolated enzyme trypsin, trypsin, pH 8.5, 37° C., digestion time 60 min., read-out: % Unchanged compound", "result": "> 99", "unit": "%"}]}
